Measurements: EP4610269A1, “UROKINASE PLASMINOGEN ACTIVATOR SURFACE RECEPTOR (UPAR) LIGANDS FOR DIAGNOSTIC OR THERAPEUTIC USE” (3B Pharmaceuticals GmbH, priority 2024, dated 2025)
Where a SMILES comes first, the peptide text is derived from it. Bridges are numbered along the chain shown (N, C = ends). [ ]: non-standard residue; d: D form. The star is where a group is joined. DOTA = O=C(O)CN1CCN(CC(=O)O)CCN(CC(=O)*)CCN(CC(=O)O)CC1; Hyp = O=C(O)[C@@H]1C[C@@H](O)CN1; Gly(cBu) = N[C@H](C(=O)O)C1CCC1; NMeQ = CN[C@@H](CCC(N)=O)C(=O)O; Pentanoyl(4-Me) = CC(C)CCC(=O)*; Cit = NC(=O)NCCC[C@H](N)C(=O)O; Nle = CCCC[C@H](N)C(=O)O; Nva = CCC[C@H](N)C(=O)O; Pentanoyl = CCCCC(=O)*

Tests used:
[1] = target: T1, uPAR-expressing HEC-265 human endometrial adenocarcinoma cells (Homo sapiens, UniProt Q03405); assay: Competitive FACS binding assay; settings: pIC50 category of FACS binding
T1 construct: Cell surface uPAR-expressing HEC-265 human endometrial adenocarcinoma cells; host or cells: HEC-265
Method in brief: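 HEC-265 cells incubated 1 h at 4 °C with 10 nM biotinylated uPAR peptide tracer plus increasing test compound, then stained with APC-streptavidin on ice. Median APC fluorescence by flow cytometry; 4PL fit gives pIC50.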

human uPAR (uPAR-Fc) = target: T2, human uPAR (uPAR-Fc) (Homo sapiens, UniProt Q03405); assay: Surface plasmon resonance (SPR) assay, single cycle kinetics; assay type: binding; settings: pKD category for uPAR SPR activity assay; uPAR-Fc on Protein A-Chip, single cycle kinetics, 25°C; read-out: pKD CAT (converted)
T2 construct: comprising amino acids Leu23-Arg303 according to UniProt entry Q03405.1; purchased R&D Systems 10378-UK-100
Method in brief: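 uPAR-Fc (Leu23-Arg303 extracellular domains, human IgG1 Fc) captured on Protein A chip to ~2000 RU; single-cycle kinetics at 25°C in HEPES running buffer pH 7.4 with 0.1% DMSO. KD from double-referenced sensorgrams fitted to 1:1 Langmuir model, reported as pKD.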

T1 sequence (Q03405 23-335): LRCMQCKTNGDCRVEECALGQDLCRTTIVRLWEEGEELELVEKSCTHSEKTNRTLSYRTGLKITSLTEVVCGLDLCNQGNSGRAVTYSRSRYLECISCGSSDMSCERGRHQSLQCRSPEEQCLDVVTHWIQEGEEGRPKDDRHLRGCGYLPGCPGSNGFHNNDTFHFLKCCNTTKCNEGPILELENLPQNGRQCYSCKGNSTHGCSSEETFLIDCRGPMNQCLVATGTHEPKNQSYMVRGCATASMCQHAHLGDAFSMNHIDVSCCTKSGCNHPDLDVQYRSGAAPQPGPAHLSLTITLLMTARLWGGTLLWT
T2 sequence (Q03405 23-303): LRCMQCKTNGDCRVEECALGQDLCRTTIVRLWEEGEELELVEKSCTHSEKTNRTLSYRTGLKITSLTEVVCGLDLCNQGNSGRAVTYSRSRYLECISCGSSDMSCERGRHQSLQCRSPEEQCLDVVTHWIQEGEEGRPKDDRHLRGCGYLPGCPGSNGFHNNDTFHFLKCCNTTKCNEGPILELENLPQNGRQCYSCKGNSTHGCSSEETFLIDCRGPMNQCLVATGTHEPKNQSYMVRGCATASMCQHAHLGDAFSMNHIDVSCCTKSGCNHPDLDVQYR

| IC50 [1] [nM] | Kd (human uPAR (uPAR-Fc)) [nM] | SMILES |
| --- | --- | --- |
| ≤ 10 | < 1.58 | CCCCC(=O)N[C@H]1CSSC[C@@H](C(N)=O)NC(=O)[C@H](C2CCC2)NC(=O)[C@H]([C@@H](C)CC)NC(=O)[C@@H]2C[C@@H](O)CN2C(=O)[C@@H]2CCCN2C(=O)[C@H](Cc2ccccc2)NC(=O)[C@H](Cc2ccc(O)cc2)NC(=O)[C@H](CCC(N)=O)NC(=O)[C@H](CCCNC(=N)N)NC1=O [UPAR-411, Pent-[Cys-Arg-Gln-Tyr-Phe-Pro-Hyp-Ile-Cbg-Cys]-NH2] (Pentanoyl-CRQYFP[Hyp]I[Gly(cBu)]C-NH2; disulfide 1-10) |
| ≥ 126 | > 100 | CCCC[C@@H]1NC(=O)[C@H](CCCNC(=N)N)NC(=O)[C@H](NC(=O)[C@H](CC(C)C)NC(=O)[C@H](CC(=O)O)NC(C)=O)CSSC[C@@H](C(N)=O)NC(=O)[C@H](CC(C)C)NC(=O)[C@H]([C@@H](C)CC)NC(=O)[C@H](C)NC(=O)[C@@H]2CCCN2C(=O)[C@H](Cc2ccccc2)NC(=O)[C@H](Cc2ccc(O)cc2)NC1=O [UPAR-412, Ac-Asp-Leu-[cys-Arg-Nle-Tyr-Phe-Pro-Ala-Ile-Leu-Cys]-NH2] (Ac-DL[dC]R[Nle]YFPAILC-NH2; disulfide 3-12) |
| ≤ 10 | < 1.58 | CC[C@H](C)[C@@H]1NC(=O)[C@@H](C)NC(=O)[C@@H]2CCCN2C(=O)[C@H](Cc2ccccc2)NC(=O)[C@H](Cc2ccc(O)cc2)NC(=O)[C@H](CCCCNC(C)=O)NC(=O)[C@H](CCCNC(N)=O)NC(=O)[C@@H](NC(=O)CCC(C)C)CSSC[C@@H](C(N)=O)NC(=O)[C@H](CC(C)C)NC1=O [UPAR-413, iHex-[Cys-Cit-Lys(Ac)-Tyr-Phe-Pro-ala-Ile-Leu-Cys]-NH2] ({Pentanoyl(4-Me)}-C[Cit]K(Ac)YFP[dA]ILC-NH2; disulfide 1-10) |
| 12.6 to 31.6 | 10 to 100 | CC[C@H](C)[C@@H]1NC(=O)[C@H](CCCCNC(=O)CN2CCN(CC(=O)O)CCN(CC(=O)O)CCN(CC(=O)O)CC2)NC(=O)[C@@H]2CCCN2C(=O)[C@H](Cc2ccccc2)NC(=O)[C@H](Cc2ccc(O)cc2)NC(=O)[C@H](CCC(N)=O)NC(=O)[C@@H](C)NC(=O)[C@@H](NC(=O)CCC(C)C)CSSC[C@@H](C(N)=O)NC(=O)[C@H](CC(C)C)NC1=O [UPAR-414, iHex-[Cys-ala-Gln-Tyr-Phe-Pro-Lys(DOTA)-Ile-Leu-Cys]-NH2] ({Pentanoyl(4-Me)}-C[dA]QYFPK(DOTA)ILC-NH2; disulfide 1-10) |

The next lines start with the molecule.

| SMILES | IC50 [1] [nM] | Kd (human uPAR (uPAR-Fc)) [nM] |
| --- | --- | --- |
| CC[C@H](C)[C@@H]1NC(=O)[C@@H](C)NC(=O)[C@@H]2CCCN2C(=O)[C@H](Cc2ccccc2)NC(=O)[C@H](Cc2ccc(O)cc2)NC(=O)[C@H](CCC(N)=O)N(C)C(=O)[C@H](CCCNC(N)=O)NC(=O)[C@@H](NC(=O)CCC(C)C)CSSC[C@@H](C(N)=O)NC(=O)[C@H](CC(C)C)NC1=O [UPAR-407, iHex-[Cys-Cit-Nmq-Tyr-Phe-Pro-ala-Ile-Leu-Cys]-NH2] ({Pentanoyl(4-Me)}-C[Cit][NMeQ]YFP[dA]ILC-NH2; disulfide 1-10) | ≥ 126 | 10 to 100 |
| CCCCC(=O)N[C@H]1CSSC[C@@H](C(N)=O)NC(=O)[C@H](CCC)NC(=O)[C@H]([C@@H](C)CC)NC(=O)[C@@H]2C[C@@H](O)CN2C(=O)[C@@H]2CCCN2C(=O)[C@H](Cc2ccccc2)NC(=O)[C@H](Cc2ccc(O)cc2)NC(=O)CNC(=O)[C@H](CCCNC(=N)N)NC1=O [UPAR-409, Pent-[Cys-Arg-Gly-Tyr-Phe-Pro-Hyp-Ile-Nva-Cys]-NH2] (Pentanoyl-CRGYFP[Hyp]I[Nva]C-NH2; disulfide 1-10) | ≤ 10 | < 1.58 |
| CC[C@H](C)[C@@H]1NC(=O)[C@@H]2C[C@@H](O)CN2C(=O)[C@@H]2CCCN2C(=O)[C@H](Cc2ccccc2)NC(=O)[C@H](Cc2ccc(O)cc2)NC(=O)[C@H](CC(=O)O)NC(=O)[C@H](CCCNC(N)=O)NC(=O)[C@@H](NC(=O)CCC(C)C)CSSC[C@@H](C(N)=O)NC(=O)[C@H](CC(C)C)NC1=O [UPAR-410, iHex-[Cys-Cit-Asp-Tyr-Phe-Pro-Hyp-Ile-Leu-Cys]-NHz] ({Pentanoyl(4-Me)}-C[Cit]DYFP[Hyp]ILC-NH2; disulfide 1-10) | ≤ 10 | < 1.58 |
